Results published in the NIST ThermoML archive (doi:10.1007/s10765-013-1526-8).
± gives the expanded uncertainty stated by the source.

How the values were obtained:
[1] = xn = mol fraction of the nth substance listed; conditions: 101 kPa, Liquid; for speed of sound: Sing-around technique in a fixed-path interferometer
[2] = refractive index (Na D-line) (dimensionless); xn = mol fraction of the nth substance listed; conditions: 101 kPa, Liquid

Brc1ccccc1 [bromobenzene] + CCCCC(CC)CO
Conditions | mass density, [1] [kg/m3] | refractive index, [2] | speed of sound, [1] [m/s] | viscosity, [1] [mPa·s]
298.15 K, x1 = 0.0623 | 846.06 ± 0.77 | 1.4348 ± 0.0019 | 1305 ± 10 | 7.004 ± 0.56
298.15 K, x1 = 0.1321 | 869.44 ± 0.71 | 1.4416 ± 0.0019 | 1295 ± 10 | 5.672 ± 0.48
298.15 K, x1 = 0.202 | 895.09 ± 0.64 | 1.4486 ± 0.0019 | 1290 ± 10 | 4.56 ± 0.4
298.15 K, x1 = 0.2694 | 924.23 ± 0.57 | 1.4554 ± 0.0019 | 1285 ± 10 | 3.717 ± 0.33
298.15 K, x1 = 0.336 | 956.85 ± 0.5 | 1.4625 ± 0.0019 | 1281 ± 10 | 3.044 ± 0.27
298.15 K, x1 = 0.3981 | 991.69 ± 0.44 | 1.4693 ± 0.0019 | 1279 ± 10 | 2.553 ± 0.23
298.15 K, x1 = 0.4625 | 1031.18 ± 0.55 | 1.4767 ± 0.0019 | 1277 ± 10 | 2.187 ± 0.2
298.15 K, x1 = 0.5272 | 1074.92 ± 0.7 | 1.4844 ± 0.0019 | 1273 ± 10 | 1.923 ± 0.18
298.15 K, x1 = 0.5918 | 1122.9 ± 0.85 | 1.4925 ± 0.0019 | 1268 ± 10 | 1.728 ± 0.16
298.15 K, x1 = 0.6627 | 1179.58 ± 1 | 1.502 ± 0.0019 | 1259 ± 10 | 1.594 ± 0.15
298.15 K, x1 = 0.7278 | 1235.29 ± 1.2 | 1.5112 ± 0.0019 | 1248 ± 10 | 1.49 ± 0.14
298.15 K, x1 = 0.7941 | 1295.12 ± 1.4 | 1.5212 ± 0.0019 | 1236 ± 10 | 1.444 ± 0.14
298.15 K, x1 = 0.8633 | 1359.7 ± 1.7 | 1.5325 ± 0.0019 | 1216 ± 10 | 1.359 ± 0.13
298.15 K, x1 = 0.9266 | 1418.41 ± 1.9 | 1.5433 ± 0.0019 | 1194 ± 10 | 1.266 ± 0.12
298.15 K, x1 = 1 | 1488.12 ± 2.2 | 1.557 ± 0.0019 | 1153 ± 10 | 1.065 ± 0.1
303.15 K, x1 = 0.0623 | 842.3 ± 0.78 | 1.4332 ± 0.0019 | 1291 ± 10 | 5.889 ± 0.49
303.15 K, x1 = 0.1321 | 864.98 ± 0.72 | 1.4403 ± 0.0019 | 1282 ± 10 | 4.765 ± 0.42
303.15 K, x1 = 0.202 | 891.19 ± 0.65 | 1.4472 ± 0.0019 | 1276 ± 10 | 3.838 ± 0.34
303.15 K, x1 = 0.2694 | 920.76 ± 0.58 | 1.4542 ± 0.0019 | 1272 ± 10 | 3.126 ± 0.28
303.15 K, x1 = 0.336 | 952.81 ± 0.51 | 1.4611 ± 0.0019 | 1270 ± 10 | 2.577 ± 0.23
303.15 K, x1 = 0.3981 | 986.69 ± 0.45 | 1.4678 ± 0.0019 | 1268 ± 10 | 2.197 ± 0.2
303.15 K, x1 = 0.4625 | 1026.09 ± 0.53 | 1.475 ± 0.0019 | 1266 ± 10 | 1.907 ± 0.18
303.15 K, x1 = 0.5272 | 1069.83 ± 0.69 | 1.4826 ± 0.0019 | 1264 ± 10 | 1.702 ± 0.16
303.15 K, x1 = 0.5918 | 1117.3 ± 0.83 | 1.4906 ± 0.0019 | 1261 ± 10 | 1.548 ± 0.15
303.15 K, x1 = 0.6627 | 1173.8 ± 1 | 1.5 ± 0.0019 | 1254 ± 10 | 1.458 ± 0.14
303.15 K, x1 = 0.7278 | 1229.12 ± 1.2 | 1.5092 ± 0.0019 | 1241 ± 10 | 1.39 ± 0.13
303.15 K, x1 = 0.7941 | 1288.41 ± 1.4 | 1.5191 ± 0.0019 | 1226 ± 10 | 1.355 ± 0.13
303.15 K, x1 = 0.8633 | 1351.6 ± 1.7 | 1.5303 ± 0.0019 | 1206 ± 10 | 1.297 ± 0.12
303.15 K, x1 = 0.9266 | 1410.1 ± 1.9 | 1.5412 ± 0.0019 | 1183 ± 10 | 1.205 ± 0.12
303.15 K, x1 = 1 | 1481.4 ± 2.2 | 1.555 ± 0.0019 | 1138 ± 10 | 1.005 ± 0.099
308.15 K, x1 = 0.0623 | 837.02 ± 0.8 | 1.4306 ± 0.0019 | 1279 ± 10 | 5.101 ± 0.44
308.15 K, x1 = 0.1321 | 859.74 ± 0.74 | 1.4376 ± 0.0019 | 1273 ± 10 | 4.181 ± 0.37
308.15 K, x1 = 0.202 | 886.06 ± 0.67 | 1.4447 ± 0.0019 | 1267 ± 10 | 3.414 ± 0.3
308.15 K, x1 = 0.2694 | 915.17 ± 0.59 | 1.4517 ± 0.0019 | 1263 ± 10 | 2.814 ± 0.25
308.15 K, x1 = 0.336 | 947.49 ± 0.52 | 1.4587 ± 0.0019 | 1259 ± 10 | 2.35 ± 0.21
308.15 K, x1 = 0.3981 | 981.89 ± 0.46 | 1.4655 ± 0.0019 | 1254 ± 10 | 2.004 ± 0.18
308.15 K, x1 = 0.4625 | 1021.03 ± 0.52 | 1.4728 ± 0.0019 | 1251 ± 10 | 1.722 ± 0.16
308.15 K, x1 = 0.5272 | 1064.57 ± 0.67 | 1.4805 ± 0.0019 | 1247 ± 10 | 1.522 ± 0.14
308.15 K, x1 = 0.5918 | 1111.88 ± 0.82 | 1.4886 ± 0.0019 | 1241 ± 10 | 1.37 ± 0.13
308.15 K, x1 = 0.6627 | 1168.02 ± 1 | 1.4981 ± 0.0019 | 1232 ± 10 | 1.265 ± 0.12
308.15 K, x1 = 0.7278 | 1222.21 ± 1.2 | 1.5072 ± 0.0019 | 1218 ± 10 | 1.192 ± 0.12
308.15 K, x1 = 0.7941 | 1279.2 ± 1.4 | 1.5171 ± 0.0019 | 1203 ± 10 | 1.149 ± 0.11
308.15 K, x1 = 0.8633 | 1339.82 ± 1.6 | 1.528 ± 0.0019 | 1183 ± 10 | 1.099 ± 0.11
308.15 K, x1 = 0.9266 | 1398.8 ± 1.9 | 1.5388 ± 0.0019 | 1161 ± 10 | 1.052 ± 0.1
308.15 K, x1 = 1 | 1474.58 ± 2.2 | 1.553 ± 0.0019 | 1122 ± 10 | 0.972 ± 0.096
